We go through 15 molecules from patent US20250163104A1, “MACROCYCLIC IMMUNOMODULATORS” (priority 2021, published 2025).

Read-outs that look alike come from different tables or passages of the source. Where a SMILES comes first, the peptide text is derived from it. Bridges are numbered along the chain shown (N, C = ends). [ ]: non-standard residue; d: D form. The star is where a group is joined. ξ: configuration not given here. Phe(3-CF3) = N[C@@H](Cc1cccc(C(F)(F)F)c1)C(=O)O; Phe(4-COOH) = N[C@@H](Cc1ccc(C(=O)O)cc1)C(=O)O; Bip = N[C@@H](Cc1ccc(-c2ccccc2)cc1)C(=O)O; Phe(3-Me) = Cc1cccc(C[C@H](N)C(=O)O)c1; Phe(4-F) = N[C@@H](Cc1ccc(F)cc1)C(=O)O; Val(3-OH) = CC(C)(O)[C@H](N)C(=O)O; 4Pal = N[C@@H](Cc1ccncc1)C(=O)O; Cha = N[C@@H](CC1CCCCC1)C(=O)O; Cit = NC(=O)NCCC[C@H](N)C(=O)O; dCha = N[C@H](CC1CCCCC1)C(=O)O; Thr(3ξ) = CC(O)[C@H](N)C(=O)O; Ahp(2) = CCCCC[C@H](N)C(=O)O; dDab = NCC[C@@H](N)C(=O)O; Carboxymethyl = O=C(O)C*; Nle = CCCC[C@H](N)C(=O)O; Orn = NCCC[C@H](N)C(=O)O; Dab = NCC[C@H](N)C(=O)O; Dap = NC[C@H](N)C(=O)O

For this test, the target named is T1, human PD-1 / PD-L1-Ig binding on Jurkat cell line over-expressing human PD-1 (Jurkat-PD-1) (Homo sapiens, UniProt Q15116).
T1 construct: expressed in transfected cells; host or cells: Jurkat
Briefly: Jurkat-PD-1 Cell Binding High-Content Screening Assay (CBA). It is filed as cell-based. Particulars: PE-labeled PD-L1-Ig 20 nM final. The method, boiled down: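 Read-out: high-content imaging of PE-tagged PD-L1-Ig bound to Jurkat cells overexpressing human PD-1, after fixation with 4% paraformaldehyde and Hoechst 33342 nuclear staining. Ligand was used at 20 nM final for 1 hour, after a 2 h compound exposure at 37° C in serum-containing DMEM.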

Where [1] appears, read: Jurkat-PD-1 cells, read-out: Jurkat HPD1_PDL1 IC50.

T1 sequence (Q15116 25-288): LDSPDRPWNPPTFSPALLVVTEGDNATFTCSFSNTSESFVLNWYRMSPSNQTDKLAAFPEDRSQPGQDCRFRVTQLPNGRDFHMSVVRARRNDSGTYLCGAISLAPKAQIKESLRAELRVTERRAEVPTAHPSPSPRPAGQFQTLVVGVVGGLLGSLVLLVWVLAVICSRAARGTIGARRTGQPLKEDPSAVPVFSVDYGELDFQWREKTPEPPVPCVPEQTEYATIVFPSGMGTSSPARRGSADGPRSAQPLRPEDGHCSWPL

A word on the IC50: it is the concentration at which inhibition is half-maximal. Consider `COc1cccc(C[C@@H]2NC(=O)[C@H](CC(=O)O)NC(=O)[C@H](Cc3ccc(OCC(=O)O)cc3)NC(=O)[C@H](Cc3ccc(OCC(=O)O)cc3)NC(=O)CSC[C@@H](C(=O)N[C@@H](C)C(N)=O)NC(=O)[C@H]([C@@H](C)O)NC(=O)[C@H](C(C)C)NC(=O)[C@H](CC3CCCCC3)NC(=O)[C@H](CCN)NC(=O)[C@@H](CC(C)C)NC(=O)[C@H](CCCN)NC(=O)[C@H](CCC(=O)O)NC(=O)[C@H](Cc3ccc(-c4ccccc4)cc3)NC(=O)[C@H](C(C)C)NC2=O)c1` [Compound 1504], for which the half-maximal inhibitory concentration (IC50) under setting [1] stood at 5.2 nM. For the molecule `CC(C)C[C@@H]1NC(=O)[C@H](CCN)NC(=O)[C@@H](CC(C)C)NC(=O)[C@H](CC(C)C)NC(=O)[C@H](C(C)C)NC(=O)[C@H](Cc2ccc(-c3ccccc3)cc2)NC(=O)[C@H](C(C)C)NC(=O)[C@H](Cc2c[nH]c3ccccc23)NC(=O)[C@H](CC(=O)O)NC(=O)[C@H](Cc2ccc(O)cc2)NC(=O)[C@H](CC(N)=O)NC(=O)CSC[C@@H](C(=O)N[C@@H](C)C(N)=O)NC(=O)[C@H]([C@@H](C)O)NC(=O)[C@H](C(C)C)NC1=O` [Compound 1037] ({CH2CO}-NYDWV[Bip]VL[dL][Dab]LVTCA-NH2; thioether N-14), the IC50 under setting [1] is 53.9 nM.

With `Cc1cccc(C[C@@H]2NC(=O)[C@H](CC(=O)O)NC(=O)[C@H](Cc3ccc(OCC(=O)O)cc3)NC(=O)[C@H](Cc3ccc(F)cc3)NC(=O)CSC[C@@H](C(=O)N[C@H](CCN)C(N)=O)NC(=O)[C@H](CCC(=O)O)NC(=O)[C@H](C(C)(C)O)NC(=O)[C@H](CC3CCCCC3)NC(=O)[C@H](CCN)NC(=O)[C@@H](CC(C)C)NC(=O)[C@H](CCCN)NC(=O)[C@H](Cc3ccc(OCC(=O)O)cc3)NC(=O)[C@H](Cc3ccc(-c4ccccc4)cc3)NC(=O)[C@H](Cc3ccc(OCC(=O)O)cc3)NC2=O)c1` [Compound 2676] ({CH2CO}-[Phe(4-F)]Y(Carboxymethyl)D[Phe(3-Me)]Y(Carboxymethyl)[Bip]Y(Carboxymethyl)[Orn][dL][Dab][Cha][Val(3-OH)]EC[dDab]-NH2; thioether N-14), under setting [1], the 50% inhibitory concentration (IC50) was determined as 8.5 nM. Turning to `Cc1cccc(C[C@@H]2NC(=O)[C@H](CC(=O)O)NC(=O)[C@H](Cc3ccc(C(=O)O)cc3)NC(=O)[C@H](Cc3ccncc3)NC(=O)CSC[C@@H](C(N)=O)NC(=O)[C@H](CO)NC(=O)[C@H](C(C)C)NC(=O)[C@H](CC3CCCCC3)NC(=O)[C@H](CCN)NC(=O)[C@@H](CC(C)C)NC(=O)[C@H](CCCN)NC(=O)[C@H](CCCNC(N)=O)NC(=O)[C@H](Cc3ccc(-c4ccccc4)cc3)NC(=O)[C@H](C(C)C)NC2=O)c1` [Compound 2268] ({CH2CO}-[4Pal][Phe(4-COOH)]D[Phe(3-Me)]V[Bip][Cit][Orn][dL][Dab][Cha]VSC-NH2; thioether N-14), under setting [1], the 50% inhibitory concentration (IC50) came to 26.8 nM.

Consider `CC(C)C[C@H]1NC(=O)[C@H](CCCN)NC(=O)[C@H](CCCNC(N)=O)NC(=O)[C@H](Cc2ccc(-c3ccccc3)cc2)NC(=O)[C@H](C(C)C)NC(=O)[C@H](Cc2c[nH]c3ccccc23)NC(=O)[C@H](CC(=O)O)NC(=O)[C@H](Cc2cccc(C(F)(F)F)c2)NC(=O)[C@H](CN)NC(=O)CSC[C@@H](C(=O)N[C@@H](C)C(N)=O)NC(=O)[C@H]([C@@H](C)O)NC(=O)[C@H](C(C)C)NC(=O)[C@H](CC2CCCCC2)NC(=O)[C@H](CCN)NC1=O` [Compound 2092] ({CH2CO}-[Dap][Phe(3-CF3)]DWV[Bip][Cit][Orn][dL][Dab][Cha]VTCA-NH2; thioether N-14), for which the IC50 under setting [1] was determined as 43.1 nM.

Take `CCCC[C@@H]1NC(=O)[C@H](CCN)NC(=O)[C@@H](CC(C)C)NC(=O)[C@H](CCCN)NC(=O)[C@H](CCCNC(N)=O)NC(=O)[C@H](Cc2ccc(-c3ccccc3)cc2)NC(=O)[C@H](C(C)C)NC(=O)[C@H](Cc2cccc(C)c2)NC(=O)[C@H](CC(=O)O)NC(=O)[C@H](Cc2ccc(OCC(=O)O)cc2)NC(=O)[C@H](Cc2ccncc2)NC(=O)CSC[C@@H](C(=O)N[C@@H](C)C(N)=O)NC(=O)[C@H]([C@@H](C)O)NC(=O)[C@H](C(C)C)NC1=O` [Compound 1195] ({CH2CO}-[4Pal]Y(Carboxymethyl)D[Phe(3-Me)]V[Bip][Cit][Orn][dL][Dab][Nle]VTCA-NH2; thioether N-14): the 50% inhibitory concentration (IC50) under setting [1] was found to be 13.8 nM.

Molecule `CC(C)C[C@H]1NC(=O)[C@H](CCCN)NC(=O)[C@H](Cc2ccc(OCc3ccccc3)cc2)NC(=O)[C@H](Cc2ccc(-c3ccccc3)cc2)NC(=O)[C@H](C(C)C)NC(=O)[C@H](Cc2c[nH]c3ccccc23)NC(=O)[C@H](CC(=O)O)NC(=O)[C@H](Cc2ccc(OCC(=O)O)cc2)NC(=O)[C@H](CN)NC(=O)CSC[C@@H](C(=O)N[C@@H](C)C(N)=O)NC(=O)[C@H]([C@@H](C)O)NC(=O)[C@H](C(C)C)NC(=O)[C@H](CC2CCCCC2)NC(=O)[C@H](CCN)NC1=O` [Compound 1530] came in with an IC50 (Jurkat HPD1_PDL1 IC50, Jurkat-PD-1 cells) of 94.9 nM. As for `CC(C)C[C@@H]1NC(=O)[C@H](Cc2c[nH]c3ccccc23)NC(=O)[C@H](CC(=O)O)NC(=O)[C@H](Cc2ccc(OCC(=O)O)cc2)NC(=O)[C@H](C(C)O)NC(=O)CSC[C@@H](C(N)=O)NC(=O)[C@H](CO)NC(=O)[C@H](C(C)C)NC(=O)[C@H](CC2CCCCC2)NC(=O)[C@H](CCC(=O)O)NC(=O)[C@@H](CC(C)C)NC(=O)[C@H](Cc2cnc[nH]2)NC(=O)[C@H](C(C)C)NC(=O)[C@H](Cc2ccc(-c3ccccc3)cc2)NC1=O` (stereo partly drawn) [Compound 2610] ({CH2CO}-[Thr(3ξ)]Y(Carboxymethyl)DWL[Bip]VH[dL]E[Cha]VSC-NH2; thioether N-14), the IC50 under setting [1] was determined as 78.3 nM. For `CC(C)C[C@H]1NC(=O)[C@H](CCCN)NC(=O)[C@H](CCC(=O)O)NC(=O)[C@H](Cc2ccc(-c3ccccc3)cc2)NC(=O)[C@H](C(C)C)NC(=O)[C@H](Cc2c[nH]c3ccccc23)NC(=O)[C@H](CC(=O)O)NC(=O)[C@H](Cc2ccc(C(=O)O)cc2)NC(=O)[C@H](Cc2ccc(OCC(=O)O)cc2)NC(=O)CSC[C@@H](C(=O)N[C@@H](C)C(N)=O)NC(=O)[C@H]([C@@H](C)O)NC(=O)[C@H](C(C)C)NC(=O)[C@H](Cc2ccccc2)NC(=O)[C@H](CCN)NC1=O` [Compound 1667] ({CH2CO}-Y(Carboxymethyl)[Phe(4-COOH)]DWV[Bip]E[Orn][dL][Dab]FVTCA-NH2; thioether N-14), the 50% inhibitory concentration (IC50) under setting [1] stood at 30 nM. On to `CC[C@H](C)[C@@H]1NC(=O)[C@H](Cc2ccc(-c3ccccc3)cc2)NC(=O)[C@H](C(C)C)NC(=O)[C@H](Cc2c[nH]c3ccccc23)NC(=O)[C@H](CC(=O)O)NC(=O)[C@H](Cc2ccc(C(=O)O)cc2)NC(=O)[C@H](Cc2ccc(OCC(=O)O)cc2)NC(=O)CSC[C@@H](C(=O)N[C@@H](C)C(N)=O)NC(=O)[C@H]([C@@H](C)O)NC(=O)[C@H](C(C)C)NC(=O)[C@H](Cc2ccccc2)NC(=O)[C@H](CCN)NC(=O)[C@@H](CC(C)C)NC(=O)[C@H](CCCN)NC1=O` [Compound 1659] ({CH2CO}-Y(Carboxymethyl)[Phe(4-COOH)]DWV[Bip]I[Orn][dL][Dab]FVTCA-NH2; thioether N-14), for which the 50% inhibitory concentration (IC50) under setting [1] came out at 9.1 nM. Same read-out and setting: for `CC(C)C[C@@H]1NC(=O)[C@H](CCN)NC(=O)[C@@H](CC(C)C)NC(=O)[C@H](CCCCN)NC(=O)[C@H](C(C)C)NC(=O)[C@H](Cc2ccc(-c3ccccc3)cc2)NC(=O)[C@H](C(C)C)NC(=O)[C@H](Cc2c[nH]c3ccccc23)NC(=O)[C@H](CC(=O)O)NC(=O)[C@H](Cc2ccc(O)cc2)NC(=O)[C@H](CC(N)=O)NC(=O)CSC[C@@H](C(=O)N[C@@H](C)C(N)=O)NC(=O)[C@H](CO)NC(=O)[C@H](C(C)C)NC1=O` [Compound 1128] ({CH2CO}-NYDWV[Bip]VK[dL][Dab]LVSCA-NH2; thioether N-14) the value was 17.6 nM; for `CC(C)[C@@H]1NC(=O)[C@H](Cc2c[nH]c3ccccc23)NC(=O)[C@H](CC(=O)O)NC(=O)[C@H](Cc2ccncc2)NC(=O)[C@H](CN)NC(=O)CSC[C@@H](C(=O)N[C@@H](C)C(N)=O)NC(=O)[C@H]([C@@H](C)O)NC(=O)[C@H](C(C)C)NC(=O)[C@H](CC2CCCCC2)NC(=O)[C@H](CCN)NC(=O)[C@@H](CC2CCCCC2)NC(=O)[C@H](CCCN)NC(=O)[C@H](C(C)C)NC(=O)[C@H](Cc2ccc(-c3ccccc3)cc2)NC1=O` [Compound 1638] ({CH2CO}-[Dap][4Pal]DWV[Bip]V[Orn][dCha][Dab][Cha]VTCA-NH2; thioether N-14), 28.6 nM; for `CC[C@H](C)[C@@H]1NC(=O)[C@H](Cc2ccc(-c3ccccc3)cc2)NC(=O)[C@H](C(C)C)NC(=O)[C@H](Cc2c[nH]c3ccccc23)NC(=O)[C@H](CC(=O)O)NC(=O)[C@H](Cc2ccc(OCC(=O)O)cc2)NC(=O)[C@H](Cc2ccc(OCC(=O)O)cc2)NC(=O)CSC[C@@H](C(=O)N[C@@H](C)C(N)=O)NC(=O)[C@H]([C@@H](C)O)NC(=O)[C@H](C(C)C)NC(=O)[C@H](Cc2ccccc2)NC(=O)[C@H](CCN)NC(=O)[C@@H](CC(C)C)NC(=O)[C@H](CCCN)NC1=O` [Compound 1660] ({CH2CO}-Y(Carboxymethyl)Y(Carboxymethyl)DWV[Bip]I[Orn][dL][Dab]FVTCA-NH2; thioether N-14), 20.6 nM. The same measure, in the same setting: for `CCC(C)[C@@H]1NC(=O)[C@H](Cc2ccc(-c3ccccc3)cc2)NC(=O)[C@H](C(C)C)NC(=O)[C@H](Cc2c[nH]c3ccccc23)NC(=O)[C@H](CC(=O)O)NC(=O)[C@H](Cc2ccc(OCC(=O)O)cc2)NC(=O)[C@H](CN)NC(=O)CSC[C@@H](C(=O)N[C@@H](C)C(N)=O)NC(=O)[C@H](C(C)O)NC(=O)[C@H](C(C)C)NC(=O)[C@H](CC2CCCCC2)NC(=O)[C@H](CCN)NC(=O)[C@@H](CC(C)C)NC(=O)[C@H](CCCN)NC1=O` (stereo partly drawn) [Compound 2520] the value was 10.5 nM; for `CCCCC[C@@H]1NC(=O)[C@H](Cc2c[nH]c3ccccc23)NC(=O)[C@H](CC(=O)O)NC(=O)[C@H](Cc2ccc(OCC(=O)O)cc2)NC(=O)[C@H](CN)NC(=O)CSC[C@@H](C(=O)N[C@@H](C)C(N)=O)NC(=O)[C@H]([C@@H](C)O)NC(=O)[C@H](C(C)C)NC(=O)[C@H](CC2CCCCC2)NC(=O)[C@H](CCN)NC(=O)[C@@H](CC(C)C)NC(=O)[C@H](CCCN)NC(=O)[C@H](CCCNC(N)=O)NC(=O)[C@H](Cc2ccc(-c3ccccc3)cc2)NC1=O` [Compound 1360] ({CH2CO}-[Dap]Y(Carboxymethyl)DW[Ahp(2)][Bip][Cit][Orn][dL][Dab][Cha]VTCA-NH2; thioether N-14), 10.8 nM.
